The results in this text go back to patent publication US20100035871A1, “BENZOXAZINE DERIVATIVES AND USES THEREOF” (priority 2006, published 2010).

Experiment [1] concerns the target T1, human 5-HT2C receptor (Homo sapiens, UniProt P28335).
T1 construct: expressed in transfected cells; host or cells: CHO (Chinese Hamster Ovary) cells; membrane preparation
T1 sequence (P28335 33-458): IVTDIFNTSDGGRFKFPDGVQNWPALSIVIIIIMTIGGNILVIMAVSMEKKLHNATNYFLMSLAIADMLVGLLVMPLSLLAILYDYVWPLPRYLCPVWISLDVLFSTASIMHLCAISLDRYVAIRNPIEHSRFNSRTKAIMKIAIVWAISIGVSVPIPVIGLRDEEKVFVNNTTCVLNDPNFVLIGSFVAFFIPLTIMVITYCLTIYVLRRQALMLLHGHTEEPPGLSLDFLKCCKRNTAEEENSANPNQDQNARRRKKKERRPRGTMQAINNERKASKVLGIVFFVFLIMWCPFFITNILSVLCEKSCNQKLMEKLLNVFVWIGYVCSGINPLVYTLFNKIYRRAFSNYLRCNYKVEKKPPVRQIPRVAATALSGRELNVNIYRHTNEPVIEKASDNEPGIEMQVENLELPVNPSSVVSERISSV
The experiment in a line: 5-HT2C receptor binding, [125I]DOI displacement, membranes of transfected CHO cells. The note with it: read-out: 5-HT2C Binding Ki avg.

Experiment [2] has as its target T1, human 5-HT2C receptor. The experiment in a line: 5-HT2C receptor-stimulated calcium mobilization (FLIPR) in CHO cells. It counts as cell-based. The note with it: for Emax: CHO, read-out: 5-HT2C Function EMax (%); for EC50: calcium mobilization, CHO cells, read-out: 5-HT2C Function EC50.

As for `COc1ccc(-c2cccc3c2OC(CN)CN3C)c(C)c1` (racemic) [Example 5, 1-[8-(4-Methoxy-2-methylphenyl)-4-methyl-3,4-dihydro-2H-1,4-benzoxazin-2-yl]methanamine], the inhibition constant Ki at human 5-HT2C receptor [1] is 0.0104 µM. Further, at human 5-HT2C receptor [2], the Emax is 80% and the EC50 came out at 0.02 µM.

Consider `COc1ccc(-c2cccc3c2OC(CN)CN3C)cc1` (racemic) [Example 6, 1-[8-(4-Methoxyphenyl)-4-methyl-3,4-dihydro-2H-1,4-benzoxazin-2-yl]methanamine], for which the Ki on human 5-HT2C receptor [1] was determined as 0.0121 µM. Moreover, on human 5-HT2C receptor [2], the Emax turned out to be 80% and the EC50 worked out at 0.07 µM.

As for `CN1CC(CN)Oc2c(-c3ccccc3F)cccc21` (racemic) [Example 7, 1-[8-(2-Fluorophenyl)-4-methyl-3,4-dihydro-2H-1,4-benzoxazin-2-yl]methanamine], at human 5-HT2C receptor [1], the inhibitory constant (Ki) is 0.0195 µM. At human 5-HT2C receptor [2], the Emax came to 60% and the concentration giving a half-maximal response (EC50) was 0.072 µM.

In the case of `Cc1ccccc1-c1cccc2c1OC(CN)CN2C` (racemic) [Example 8, 1-[4-Methyl-8-(2-methylphenyl)-3,4-dihydro-2H-1,4-benzoxazin-2-yl]methanamine], at human 5-HT2C receptor [1], the inhibition constant (Ki) is 0.0268 µM. At human 5-HT2C receptor [2], the Emax is 70% and the 50% effective concentration (EC50) amounted to 0.082 µM.

Consider `NCC1CNc2cc(F)cc(-c3c(Cl)cccc3Cl)c2O1` (racemic) [Example 10, 1-[8-(2,6-Dichlorophenyl)-6-fluoro-3,4-dihydro-2H-1,4-benzoxazin-2-yl]methanamine], for which, at human 5-HT2C receptor [1], the inhibition constant (Ki) was 0.0009 µM. For the same compound, at human 5-HT2C receptor [2], the Emax is 70% and the 50% effective concentration (EC50) came to 0.005 µM.

Take `CN1CC(CN)Oc2c(-c3ccccc3Cl)cccc21` (racemic) [Example 11, 1-[8-(2-Chlorophenyl)-4-methyl-3,4-dihydro-2H-1,4-benzoxazin-2-yl]methanamine]: on human 5-HT2C receptor [1], the Ki turned out to be 0.0092 µM. On human 5-HT2C receptor [2], the Emax stood at 70% and the EC50 was 0.037 µM.

Consider `NCC1CN(CC2CC2)c2cccc(-c3ccccc3Cl)c2O1` (racemic) [Example 12, 1-[8-(2-Chlorophenyl)-4-(cyclopropylmethyl)-3,4-dihydro-2H-1,4-benzoxazin-2-yl]methanamine], for which, on human 5-HT2C receptor [1], the inhibition constant (Ki) was 0.0227 µM. Also, on human 5-HT2C receptor [2], the Emax worked out at 40% and the EC50 amounted to 0.166 µM.

With `CN1CC(CN)Oc2c(-c3cc(Cl)ccc3Cl)cccc21` (racemic) [Example 13, 1-[8-(2,5-Dichlorophenyl)-4-methyl-3,4-dihydro-2H-1,4-benzoxazin-2-yl]methanamine], at human 5-HT2C receptor [1], the inhibitory constant (Ki) was 0.0128 µM. In addition, on human 5-HT2C receptor [2], the maximal effect (Emax) is 70% and the half-maximal effective concentration (EC50) came to 0.131 µM.

`NCC1CNc2cccc(-c3cc(Cl)ccc3Cl)c2O1` (racemic) [Example 14, 1-[8-(2,5-Dichlorophenyl)-3,4-dihydro-2H-1,4-benzoxazin-2-yl]methanamine]: the Ki at human 5-HT2C receptor [1] came out at 0.0064 µM. Further, at human 5-HT2C receptor [2], the maximal effect (Emax) stood at 60% and the EC50 came out at 0.012 µM.

Consider `NCC1CNc2cccc(-c3ccc(Cl)cc3Cl)c2O1` (racemic) [Example 15, 1-[8-(2,4-Dichlorophenyl)-3,4-dihydro-2H-1,4-benzoxazin-2-yl]methanamine], for which the inhibition constant (Ki) at human 5-HT2C receptor [1] came out at 0.0159 µM. Besides, on human 5-HT2C receptor [2], the maximum response (Emax) turned out to be 70% and the half-maximal effective concentration (EC50) turned out to be 0.008 µM.

As to `NCC1CNc2cccc(-c3ccccc3Cl)c2O1` (racemic) [Example 16, 1-[8-(2-Chlorophenyl)-3,4-dihydro-2H-1,4-benzoxazin-2-yl]methanamine], the inhibitory constant (Ki) at human 5-HT2C receptor [1] was 0.014 µM. At human 5-HT2C receptor [2], the Emax turned out to be 70% and the 50% effective concentration (EC50) was determined as 0.003 µM.

With `Cc1ccccc1-c1cccc2c1OC(CN)CN2` (racemic) [Example 17, 1-[8-(2-Methylphenyl)-3,4-dihydro-2H-1,4-benzoxazin-2-yl]methanamine], the Ki on human 5-HT2C receptor [1] stood at 0.031 µM. Also, at human 5-HT2C receptor [2], the Emax amounted to 72% and the half-maximal effective concentration (EC50) was 0.101 µM.

For `NCC1CNc2cccc(-c3ccc(Cl)cc3C(F)(F)F)c2O1` (racemic) [Example 18, 1-{8-[4-Chloro-2-(trifluoromethyl)phenyl]-3,4-dihydro-2H-1,4-benzoxazin-2-yl}methanamine], at human 5-HT2C receptor [1], the inhibition constant (Ki) was 0.0079 µM. For the same compound, at human 5-HT2C receptor [2], the Emax was 56% and the EC50 came out at 0.109 µM.

As for `Cc1cc(Cl)ccc1-c1cccc2c1OC(CN)CN2` (racemic) [Example 20, 1-[8-(4-chloro-2-methylphenyl)-3,4-dihydro-2H-1,4-benzoxazin-2-yl]methanamine], the Ki on human 5-HT2C receptor [1] worked out at 0.0195 µM. Further, at human 5-HT2C receptor [2], the Emax came to 75% and the 50% effective concentration (EC50) was determined as 0.285 µM.

On to `NCC1CNc2cccc(-c3ccccc3C(F)(F)F)c2O1` (racemic) [Example 22, 1-{8-[2-(Trifluoromethyl)phenyl]-3,4-dihydro-2H-1,4-benzoxazin-2-yl}methanamine], for which the inhibition constant (Ki) at human 5-HT2C receptor [1] stood at 0.0072 µM. Besides, on human 5-HT2C receptor [2], the maximum response (Emax) turned out to be 72% and the concentration for a half-maximal effect (EC50) amounted to 0.039 µM.

For `NCC1CNc2cccc(-c3ccc(C(F)(F)F)cc3C(F)(F)F)c2O1` (racemic) [Example 23, 1-{8-[2,4-Bis(trifluoromethyl)phenyl]-3,4-dihydro-2H-1,4-benzoxazin-2-yl}methanamine], the Ki on human 5-HT2C receptor [1] was found to be 0.0395 µM. In addition, at human 5-HT2C receptor [2], the Emax was determined as 79% and the concentration giving a half-maximal response (EC50) stood at 0.367 µM.

Turning to `COc1ccc(-c2cccc3c2OC(CN)CN3)c(C)c1` (racemic) [Example 24, 1-[8-(4-Methoxy-2-methylphenyl)-3,4-dihydro-2H-1,4-benzoxazin-2-yl]methanamine], the Ki on human 5-HT2C receptor [1] came to 0.0149 µM. In addition, on human 5-HT2C receptor [2], the maximal response (Emax) amounted to 75% and the EC50 is 0.025 µM.

Consider `COc1ccc(-c2cc(Cl)cc3c2NC(CN)CO3)c(C)c1` (racemic) [Example 27, 1-[7-chloro-5-(4-methoxy-2-methylphenyl)-3,4-dihydro-2H-1,4-benzoxazin-3-yl]methanamine], for which the Ki at human 5-HT2C receptor [1] was 0.0532 µM. On human 5-HT2C receptor [2], the maximal response (Emax) was determined as 47% and the EC50 amounted to 1.29 µM.

Regarding `Cc1ccc(-c2cc(Cl)cc3c2NC(CN)CO3)c(C(F)(F)F)c1` (racemic) [Example 31, 1-{7-chloro-5-[4-methyl-2-(trifluoromethyl)phenyl]-3,4-dihydro-2H-1,4-benzoxazin-3-yl}methanamine], at human 5-HT2C receptor [1], the inhibitory constant (Ki) was determined as 0.0305 µM. Further, on human 5-HT2C receptor [2], the Emax was 60% and the 50% effective concentration (EC50) worked out at 0.876 µM.

`COc1ccc(-c2cc(Cl)cc3c2NC(CN)CO3)c(Cl)c1` (racemic) [Example 32, 1-[7-chloro-5-(2-chloro-4-methoxyphenyl)-3,4-dihydro-2H-1,4-benzoxazin-3-yl]methanamine]: the Ki at human 5-HT2C receptor [1] stood at 0.0295 µM. In addition, on human 5-HT2C receptor [2], the Emax was 57% and the EC50 turned out to be 1.01 µM.

Take `NCC1COc2cc(Cl)cc(-c3ccccc3Cl)c2N1` (racemic) [Example 36, 1-[7-chloro-5-(2-chlorophenyl)-3,4-dihydro-2H-1,4-benzoxazin-3-yl]methanamine]: the inhibitory constant (Ki) on human 5-HT2C receptor [1] was 0.0468 µM. Also, on human 5-HT2C receptor [2], the Emax came out at 53% and the concentration for a half-maximal effect (EC50) came to 0.845 µM.

Take `NCC1COc2cc(F)cc(-c3ccccc3C(F)(F)F)c2N1` (racemic) [Example 55, 1-{7-fluoro-5-[2-(trifluoromethyl)phenyl]-3,4-dihydro-2H-1,4-benzoxazin-3-yl}methanamine]: the inhibition constant Ki on human 5-HT2C receptor [1] was 0.0193 µM. On human 5-HT2C receptor [2], the Emax was 54% and the half-maximal effective concentration (EC50) came to 0.331 µM.

Regarding `COc1ccc(-c2cc(F)cc3c2NC(CN)CO3)c(Cl)c1` (racemic) [Example 59, 1-[5-(2-chloro-4-methoxyphenyl)-7-fluoro-3,4-dihydro-2H-1,4-benzoxazin-3-yl]methanamine], at human 5-HT2C receptor [1], the Ki was 0.0369 µM. Also, at human 5-HT2C receptor [2], the Emax turned out to be 59% and the half-maximal effective concentration (EC50) is 0.138 µM.

For `NC[C@H]1CNc2cccc(-c3ccccc3Cl)c2O1` [Example 39, 1-[(2S)-8-(2-chlorophenyl)-3,4-dihydro-2H-1,4-benzoxazin-2-yl]methanamine], the inhibitory constant (Ki) on human 5-HT2C receptor [1] was 0.0148 µM. At human 5-HT2C receptor [2], the Emax is 60% and the concentration for a half-maximal effect (EC50) turned out to be 0.00687 µM.

Turning to `NC[C@@H]1CNc2cccc(-c3ccccc3Cl)c2O1` [Example 40, 1-[(2R)-8-(2-chlorophenyl)-3,4-dihydro-2H-1,4-benzoxazin-2-yl]methanamine], on human 5-HT2C receptor [1], the Ki was 0.0605 µM. Besides, at human 5-HT2C receptor [2], the maximum response (Emax) came out at 45% and the EC50 worked out at 0.0443 µM.

With `NC[C@@H]1CNc2cccc(-c3ccccc3C(F)(F)F)c2O1` [Example 41, 1-{(2R)-8-[2-(trifluoromethyl)phenyl]-3,4-dihydro-2H-1,4-benzoxazin-2-yl}methanamine], the Ki on human 5-HT2C receptor [1] is 0.0166 µM. In addition, at human 5-HT2C receptor [2], the maximal effect (Emax) is 62% and the EC50 stood at 0.0105 µM.

Regarding `NC[C@H]1CNc2cccc(-c3ccccc3C(F)(F)F)c2O1` [Example 47, 1-{(2S)-8-[2-(trifluoromethyl)phenyl]-3,4-dihydro-2H-1,4-benzoxazin-2-yl}methanamine], on human 5-HT2C receptor [1], the inhibitory constant (Ki) is 0.035 µM. In addition, on human 5-HT2C receptor [2], the Emax was 80% and the half-maximal effective concentration (EC50) stood at 0.00274 µM.

As for `COc1ccc(-c2cccc3c2O[C@@H](CN)CN3)c(C)c1` [Example 50, 1-[(2S)-8-(4-methoxy-2-methylphenyl)-3,4-dihydro-2H-1,4-benzoxazin-2-yl]methanamine], the Ki at human 5-HT2C receptor [1] was determined as 0.0333 µM. At human 5-HT2C receptor [2], the Emax came to 74% and the 50% effective concentration (EC50) is 0.00072 µM.

On to `COc1ccc(-c2cccc3c2O[C@@H](CN)CN3)c(Cl)c1` [Example 52, 1-[(2S)-8-(2-chloro-4-methoxyphenyl)-3,4-dihydro-2H-1,4-benzoxazin-2-yl]methanamine], for which, at human 5-HT2C receptor [1], the inhibitory constant (Ki) was determined as 0.00905 µM. In addition, at human 5-HT2C receptor [2], the maximal effect (Emax) is 78% and the EC50 was found to be 0.00017 µM.
